From ChEMBL document CHEMBL1149225, “Synthesis and evaluation of substituted 4-alkoxy-2-aminopyridines as novel neuropeptide Y1 receptor antagonists” (Bioorg Med Chem Lett, 2004)
pIC50: −log10 of the molar value.

Legend:
CHO = test: Inhibitory concentration against 1 nM NPY induced [Ca2+] increase in CHO/dhFr- cells expressing recombinant human Y1 receptor; type: functional, cell-based; settings: Cricetulus griseus
[1] = biological target: T1, Neuropeptide Y receptor type 1 (Homo sapiens, UniProt P25929); test: Binding affinity against human recombinant NPY Y1 receptor in CHO/dhFr- cell membranes using [125I]PYY
T1 sequence (P25929 whole entry): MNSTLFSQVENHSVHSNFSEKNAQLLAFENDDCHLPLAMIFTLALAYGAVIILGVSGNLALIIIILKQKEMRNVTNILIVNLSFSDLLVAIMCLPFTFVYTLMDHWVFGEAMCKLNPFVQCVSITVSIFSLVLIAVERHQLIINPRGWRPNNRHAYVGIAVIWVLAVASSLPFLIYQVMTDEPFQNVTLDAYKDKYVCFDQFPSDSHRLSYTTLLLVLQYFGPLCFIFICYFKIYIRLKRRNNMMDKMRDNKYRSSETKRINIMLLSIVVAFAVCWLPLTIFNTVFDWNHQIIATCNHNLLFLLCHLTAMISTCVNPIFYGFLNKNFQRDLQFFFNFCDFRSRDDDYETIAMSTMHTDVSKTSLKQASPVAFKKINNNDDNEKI

For `CC/C=C\CCOc1cc(CCc2nc(C)c(CC)s2)nc(NCc2cc(Cl)cc(NC(=O)OC(C)C)c2)c1`, the pIC50 (CHO) was 7.19 and the pIC50 [1] was 8.33.
With `CCc1sc(CCc2cc(OC3CCCC3)cc(NCc3cc(Cl)cc(NC(=O)OC(C)C)c3)n2)nc1C` the pIC50 [1] was 7.96.
With `CCc1sc(CCc2cc(OC(C)C)cc(NCc3cc(Cl)cc(NC(=O)OC(C)C)c3)n2)nc1C` the pIC50 [1] was 7.92.
`CCCOc1cc(CCc2nc(C)c(CC)s2)nc(NCc2cc(Cl)cc(NC(=O)OC(C)C)c2)c1` gave a pIC50 [1] of 7.77.
In the case of `CCc1sc(CCc2cc(OC(C)COC)cc(NCc3cc(Cl)cc(NC(=O)OC(C)C)c3)n2)nc1C` (stereo not drawn), the pIC50 (CHO) was 7.23 and the pIC50 [1] was 8.08.
For `CCc1sc(CCc2cc(OCC(C)(C)C)cc(NCc3cc(Cl)cc(NC(=O)OC(C)C)c3)n2)nc1C`, the pIC50 [1] was 7.26.
`CCc1sc(CCc2cc(OCc3ccccc3)cc(NCc3cc(Cl)cc(NC(=O)OC(C)C)c3)n2)nc1C` was tested, and the pIC50 [1] was 6.63.
For `CCCCCOc1cc(CCc2nc(C)c(CC)s2)nc(NCc2cc(Cl)cc(NC(=O)OC(C)C)c2)c1`, the pIC50 [1] was 7.46.
`CCCCCCCOc1cc(CCc2nc(C)c(CC)s2)nc(NCc2cc(Cl)cc(NC(=O)OC(C)C)c2)c1` was tested, and the pIC50 [1] was 7.14.
`CCc1sc(CCc2cc(OCCc3ccccc3)cc(NCc3cc(Cl)cc(NC(=O)OC(C)C)c3)n2)nc1C` showed a pIC50 [1] of 7.52.
With `CCOc1cc(CCc2nc(C)c(CC)s2)nc(NCc2cc(Cl)cc(NC(=O)OC(C)C)c2)c1` the pIC50 [1] was 7.48.
Molecule `CCCCOc1cc(CCc2nc(C)c(CC)s2)nc(NCc2cc(Cl)cc(NC(=O)OC(C)C)c2)c1` has a pIC50 [1] of 7.80.
`CCc1sc(CCc2cc(OCCCc3ccccc3)cc(NCc3cc(Cl)cc(NC(=O)OC(C)C)c3)n2)nc1C` was tested, and the pIC50 [1] was 7.70.
For `CCc1sc(CCc2cc(OC3CCCCC3)cc(NCc3cc(Cl)cc(NC(=O)OC(C)C)c3)n2)nc1C`, the pIC50 [1] was 7.54.
For `CCc1sc(CCc2cc(OC)cc(NCc3cc(Cl)cc(NC(=O)OC(C)C)c3)n2)nc1C`, the pIC50 [1] was 6.63.
`CCc1sc(CCc2cc(N3CCOCC3)cc(NCc3cc(Cl)cc(NC(=O)OC(C)C)c3)n2)nc1C` was tested, and the pIC50 (CHO) was 8.54 and the pIC50 [1] was 8.85.
Molecule `CCc1sc(CCc2cc(OC(CC)CC)cc(NCc3cc(Cl)cc(NC(=O)OC(C)C)c3)n2)nc1C` has a pIC50 (CHO) of 7.48 and a pIC50 [1] of 8.26.
In the case of `CCc1sc(CCc2cc(OCCCc3cccnc3)cc(NCc3cc(Cl)cc(NC(=O)OC(C)C)c3)n2)nc1C`, the pIC50 (CHO) was 7.34 and the pIC50 [1] was 8.19.
Molecule `CCCCCCOc1cc(CCc2nc(C)c(CC)s2)nc(NCc2cc(Cl)cc(NC(=O)OC(C)C)c2)c1` has a pIC50 [1] of 7.20.
For `CCc1sc(CCc2cc(OC3CCOCC3)cc(NCc3cc(Cl)cc(NC(=O)OC(C)C)c3)n2)nc1C`, the pIC50 (CHO) was 7.38 and the pIC50 [1] was 8.36.
Molecule `CCc1sc(CCc2cc(OC3CCC3)cc(NCc3cc(Cl)cc(NC(=O)OC(C)C)c3)n2)nc1C` has a pIC50 [1] of 7.96.
With `CCc1sc(CCc2cc(OCC3(C)CC3)cc(NCc3cc(Cl)cc(NC(=O)OC(C)C)c3)n2)nc1C` the pIC50 [1] was 7.77.
